Experimental findings from patent publication US7968572B2, “Nitrogen-containing heterocyclic compound and pharmaceutical application thereof” (Ono Pharmaceuticals Co., Ltd., priority 2005, dated 2011) are described below.

Data set [1] deals with TNF-α production induced by lipopolysaccharide (LPS) in rats. Briefly: Rat cytokine-production model. Particulars: male SD rat, oral 0.3 mg/kg, LPS 10 μg/kg intravenously after 8 hours, plasma TNF-α ninety minutes after LPS; read-out: Inhibition rate (%) (Dose of compound: 0.3 mg/kg). Format: in vivo. The procedure:
Rat Cytokine-Production Model
The in vivo effect of the compound of the present invention was studied on TNF-α production induced by lipopolysaccharide (LPS) in rats.
A vehicle containing the compound of the present invention was orally administered to male SD rat (Charles River Japan, Inc.), and after 8 hours, lipopolysaccharide (LPS, 055:B5, Difco) was intravenously administered at the dose of 10 μg/kg (5 animals/group). Only a vehicle was orally administered to a control group (5 animals). Ninety minutes after the LPS treatment, heparinized blood collection was performed via the abdominal vena cava under anesthesia with ether, and blood plasma was obtained by centrifugation (12,000 rpm, 3 minutes, 4° C.). The obtained blood plasma sample was stored at −80° C. until it was used. TNF-α in the blood plasma was measured using an ELISA kit from R&D System (#RTA00).
The inhibitory activity of the compound of the present invention against TNF-α production was calculated as an inhibition rate (%) according to the following equation: Inhibition rate (%)={(AC−AX)/AC}×100
wherein AC is a measured value in case where no test compound was administered under LPS induction, and
AX is a measured value in case where a test compound was administered under LPS induction.

In data set [2] the target is T1, recombinant human p38α MAP kinase (Homo sapiens, UniProt Q16539).
T1 construct: purchased Upstate Biotechnology #14-251
T1 sequence (Q16539 whole entry): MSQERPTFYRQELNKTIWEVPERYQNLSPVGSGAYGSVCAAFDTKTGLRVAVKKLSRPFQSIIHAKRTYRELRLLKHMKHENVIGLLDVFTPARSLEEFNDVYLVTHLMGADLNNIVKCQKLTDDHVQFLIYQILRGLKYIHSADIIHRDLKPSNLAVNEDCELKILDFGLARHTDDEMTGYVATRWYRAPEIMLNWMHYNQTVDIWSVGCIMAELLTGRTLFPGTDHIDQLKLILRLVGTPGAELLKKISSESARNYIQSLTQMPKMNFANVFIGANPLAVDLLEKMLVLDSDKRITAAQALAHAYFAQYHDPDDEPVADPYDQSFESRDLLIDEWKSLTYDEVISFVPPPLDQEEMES
Briefly: Study on p38α MAP kinase inhibitory activity (ATF2 phosphorylation, Alpha Screen). Format: biochemical. Particulars: biotinylated ATF2 substrate, 30° C. for 30 minutes. The protocol:
Study on p38α MAP Kinase Inhibitory Activity
Using activating transcription factor-2 (hereinafter abbreviated to ATF2) which is a substrate for p38α MAP kinase, the inhibitory action of the compounds of the present invention was investigated on the phosphorylation by a recombinant human p38α MAP kinase.
A kinase buffer (25 mM Tris-HCl (pH 7.5), 5 mM β-glycerophosphate, 2 mM dithiothreitol, 0.1 mM Na3VO4, 10 mM MgCl2) containing a recombinant human p38α MAP kinase (Upstate Biotechnology #14-251) was added to a 384-well plate (5 μL) (6.25 ng protein/well) for fluorescence measurement. After addition of a kinase buffer (5 μL) containing the compound of the present invention, the resulting mixture was incubated at room temperature for 20 minutes. A substrate mixture (5 μL) of biotinylated ATF2 of 5 μg/mL (Upstate Biotechnology #14-432), adenosine triphosphate (90 μmol/L) (Sigma #FL-AAS) and anti-phosphorylated ATF2 antibody (20-fold dilution) (Cell Signaling Technology #9221L) prepared separately was added thereto, and enzyme reaction was carried out at 30° C. for 30 minutes. After the reaction, Hepes buffer (5 μL) containing 0.25% BSA and 100 mM EDTA was added to stop the enzyme reaction. The amount of a complex of the phosphorylated ATF2 and anti-phosphorylated ATF2 antibody produced by the reaction was measured using an Alpha Screen™ Rabbit Detection kit (Packard #6760607).
The p38α MAP kinase inhibitory activity, which is the effect of the compound of the present invention, was calculated as an inhibition rate (%) according to the following equation: Inhibition rate (%)={(AC−AX)/(AC−AB)}×100
wherein AB is a measured value without addition of the enzyme;
AC is a measured value with addition of the enzyme in the absence of a test compound; and
AX is a measured value with addition of the enzyme in the presence of a test compound.
Inhibition rate of compounds with each concentration was calculated, and a value indicating 50% inhibition (IC50) was determined from the inhibition curve.

The subject of data set [3] is Chinese hamster lung cells (CHL/IU). Briefly: Phospholipidosis detection system using a fluorescence labeling phospholipid analog (NBD-PE). Format: cell-based. The note with it: for Pospholipid accumulation increasing ratio (% of 30 uM amiodarone) (Dose of compound: 100 uM): about 24 hours with NBD-PE; for Judgment: phospholipidosis inducing activity, NBD-PE. The protocol:
Study by a Phospholipidosis Detection System using a Fluorescence Labeling Phospholipid Analog Cell suspension (7×10^4 cells/ml) of Chinese hamster lung cells (CHL/IU) prepared using MEM (minimum essential medium) was added to a 96 well plate (96 well clear bottom plate) by 100 μL/necessary number of wells (2 wells for 1 dosage) and cultured for about 24 hours. After the culturing and subsequent removal of the supernatants on the 96 well plate, the compounds having respective concentrations prepared by dissolving or suspending in MEM medium containing 25 μmol/L of nitrobenzoxazole dipalmitoyl phosphatidyl ethanolamine (NBD-PE) (hereinafter abbreviated to NBD-PE medium) were added thereto by 100 μL/ well and treated for about 24 hours. Treating concentration of each compound was set to be 6.25, 12.5, 25, 50 or 100 μmol/L. […] In this connection, 5 wells of an untreated control (MEM medium alone) or an NBD-PE control (prepared by adding 1/100 volume of DMSO to the NBD-PE medium) were arranged for each compound and cultured in the same manner. After completion of the culturing and subsequent two times of washing with 100 μL/well of phosphate buffered saline (hereinafter abbreviated to PBS) (−), 100 μL of the MEM medium was added to all of the treated wells including two empty wells for the WST-1 background control and cultured for about 0.5 hour. Fluorescence intensity of each well was measured using a microplate reader (manufactured by Molecular Devices, SPECTRA max M2; excitation wavelength 485 nm/fluorescence wavelength 535 nm). Using average value of 2 wells for each dosage, the phospholipid increasing ratio (%) based on NBD-PE control was calculated using the following formula. Phospholipid accumulation increasing ratio (%)=100×(fluorescence intensity of substance to be tested−fluorescence intensity of untreated control)/(fluorescence intensity of NBD-PE control−fluorescence intensity of untreated control) (iii) Cytotoxicity Test The Pre value was calculated by measuring the 96 well plate which was measured in the measurement of phospholipid accumulation, using the microplate reader (manufactured by Molecular Devices, SPECTRA max M2) at a dominant wavelength of 450 nm and a correction wavelength of 690 nm. Premix WST-1 was added to the pre-measured 96 well plate by 5 μL/well. After 2 to 4 hours of culture, the Aft value was calculated by measuring in the same manner as in the Pre measurement. The background control value was subtracted from each of the measured values. Using the value obtained by subtracting the Pre value from the Aft value, the cell growth ratio (%) was calculated using the following formula.

Each structure is given as a SMILES string.

As usually defined, the IC50 is the concentration needed to halve the response being measured. For `CC(C)(O)c1nc(-c2ccc(=O)n(-c3c(F)cccc3F)c2)c(-c2ccc(F)cc2F)o1` [Example 7 (21), 1-(2,6-difluorophenyl)-5-[5-(2,4-difluorophenyl)-2-(1-hydroxy-1-methylethyl)-1,3-oxazol-4-yl]-2(1H)-pyridinone], the inhibition at 0.3 mg/kg in data set [1] worked out at 85%. In addition, in data set [2], the IC50 stood at 3.5 nM. In addition, in data set [3], the “Pospholipid accumulation increasing ratio (% of 30 uM amiodarone) (Dose of compound: 100 uM)” value is recorded as 8 % of 30 uM amiodarone and the Judgment entry is “Negative”.
On the same counts, the results for `O=c1ccc(-c2nc(C(O)(CO)CO)oc2-c2ccc(F)cc2F)cn1-c1c(F)cccc1F` [Example 7 (39), 1-(2,6-difluorophenyl)-5-{5-(2,4-difluorophenyl)-2-[1,2-dihydroxy-1-(hydroxymethyl)ethyl]-1,3-oxazol-4-yl}-2(1H)-pyridinone] are 64%, 2.8 nM, 11 % of 30 uM amiodarone and “Negative”.
On the same counts, the results for `C[C@@](O)(CO)c1nc(-c2ccc(=O)n(-c3c(F)cccc3F)c2)c(-c2ccc(F)cc2F)o1` [Example 167 (1), 1-(2,6-difluorophenyl)-5-{5-(2,4-difluorophenyl)-2-[(1R)-1,2-dihydroxy-1-methylethyl]-1,3-oxazol-4-yl}-2(1H)-pyridinone] are 73%, 4.4 nM, 3 % of 30 uM amiodarone and “Negative”.
On the same counts, the results for `C[C@](O)(CO)c1nc(-c2ccc(=O)n(-c3c(F)cccc3F)c2)c(-c2ccc(F)cc2F)o1` [Example 167 (2), 1-(2,6-difluorophenyl)-5-{5-(2,4-difluorophenyl)-2-[(1S)-1,2-dihydroxy-1-methylethyl]-1,3-oxazol-4-yl}-2(1H)-pyridinone] are 64%, 3.8 nM, 18 % of 30 uM amiodarone and “Negative”.
Consider `CC(C)(O)[C@H](O)c1nc(-c2ccc(F)cc2F)c(-c2ccc(=O)n(-c3c(F)cccc3F)c2)o1` [Example 206, 1-(2,6-difluorophenyl)-5-{4-(2,4-difluorophenyl)-2-[(1S)-1,2-dihydroxy-2-methylpropyl]-1,3-oxazol-5-yl}-2(1H)-pyridinone], for which the inhibition at 0.3 mg/kg in data set [1] came out at 79%. Moreover, the IC50 in data set [2] was 3.3 nM. Besides, in data set [3], the “Pospholipid accumulation increasing ratio (% of 30 uM amiodarone) (Dose of compound: 100 uM)” value is 10 % of 30 uM amiodarone and the Judgment result is “Negative”.
For `CC(C)(O)[C@@H](O)c1nc(-c2ccc(F)cc2F)c(-c2ccc(=O)n(-c3c(F)cccc3F)c2)o1` [Example 207, 1-(2,6-difluorophenyl)-5-{4-(2,4-difluorophenyl)-2-[(1R)-1,2-dihydroxy-2-methylpropyl]-1,3-oxazol-5-yl}-2(1H)-pyridinone], in data set [1], the inhibition at 0.3 mg/kg came out at 94%. Also, the IC50 in data set [2] was 3.7 nM. Further, in data set [3], the “Pospholipid accumulation increasing ratio (% of 30 uM amiodarone) (Dose of compound: 100 uM)” value is given as 11 % of 30 uM amiodarone and the Judgment result is recorded as “Negative”.
In the same order, the values of `C[C@@](O)(CO)c1nc(-c2ccc(F)cc2F)c(-c2ccc(=O)n(-c3c(F)cccc3F)c2)o1` [Example 211, 1-(2,6-difluorophenyl)-5-{4-(2,4-difluorophenyl)-2-[(1R)-1,2-dihydroxy-1-methylethyl]-1,3-oxazol-5-yl}-2(1H)-pyridinone] are 85%, 5.6 nM, 8 % of 30 uM amiodarone and “Negative”.
With `CC(C)(O)Cc1nc(-c2ccc(F)cc2F)c(-c2ccc(=O)n(-c3c(F)cccc3F)c2)o1` [Example 220, 1-(2,6-difluorophenyl)-5-[4-(2,4-difluorophenyl)-2-(2-hydroxy-2-methylpropyl)-1,3-oxazol-5-yl]-2(1H)-pyridinone], in data set [1], the inhibition at 0.3 mg/kg was found to be 88%. In addition, the IC50 in data set [2] turned out to be 8 nM. Also, in data set [3], the “Pospholipid accumulation increasing ratio (% of 30 uM amiodarone) (Dose of compound: 100 uM)” value is reported as 11 % of 30 uM amiodarone and the Judgment result is recorded as “Negative”.
Consider `O=c1ccc(-c2oc(C(O)(CO)CO)nc2-c2ccc(F)cc2F)cn1-c1c(F)cccc1F` [Example 223, 1-(2,6-difluorophenyl)-5-{4-(2,4-difluorophenyl)-2-[1,2-dihydroxy-1-(hydroxymethyl)ethyl]-1,3-oxazol-5-yl}-2(1H)-pyridinone], for which the inhibition at 0.3 mg/kg in data set [1] came out at 72%. The IC50 in data set [2] stood at 3.3 nM. For the same compound, in data set [3], the “Pospholipid accumulation increasing ratio (% of 30 uM amiodarone) (Dose of compound: 100 uM)” value is on record as 12 % of 30 uM amiodarone and the Judgment result was “Negative”.
On to `CC(C)(O)[C@@H](O)c1nc(-c2ccc(=O)n(-c3c(F)cccc3F)c2)c(-c2ccc(F)cc2F)o1` [Example 227 (1), 1-(2,6-difluorophenyl)-5-{5-(2,4-difluorophenyl)-2-[(1R)-1,2-dihydroxy-2-methylpropyl]-1,3-oxazol-4-yl}-2(1H)-pyridinone], for which the inhibition at 0.3 mg/kg in data set [1] came to 88%. Moreover, the IC50 in data set [2] came to 4.8 nM. Besides, in data set [3], the “Pospholipid accumulation increasing ratio (% of 30 uM amiodarone) (Dose of compound: 100 uM)” value is given as 13 % of 30 uM amiodarone and the Judgment entry was “Negative”.
In the same order, the values of `CC(C)(O)[C@H](O)c1nc(-c2ccc(=O)n(-c3c(F)cccc3F)c2)c(-c2ccc(F)cc2F)o1` [Example 227, 1-(2,6-difluorophenyl)-5-{5-(2,4-difluorophenyl)-2-[(1S)-1,2-dihydroxy-2-methylpropyl]-1,3-oxazol-4-yl}-2(1H)-pyridinone] are 65%, 3.9 nM, 12 % of 30 uM amiodarone and “Negative”.
